Columns and labels:
[1] = test system: Delaware Variant A strain of IBDV; assay: In vitro IBDV replication assay in chick embryo fibroblasts (viral antigen capture ELISA); details: compounds maintained in the culture medium throughout
cells = assay: MTT assay for cell viability (cell toxicity); type: cell-based; details: highest concentration tested 1 mM
Experimental: BABIM, SW066, and DAP092 were assessed for cell toxicity using the MTT assay for cell viability described in T. Mossman, J. Immunol. Methods 65, 55-63 (1983). […] 10 μl of MTT reagent was added to each wall and incubated for four hours at 38° C. Acid-isopropanol was added to stop the reaction and plates were read within one hour at 570 nm and 630 nm. The 630 nm reading was subtracted from the 570 nm reading. No toxicity was reported for BABIM.

APHIS strain IBDV = assay: Leghorn drug study (Example 13); type: in vivo, Leghorns; details: for protection against IBDV (rank order): 100 EID APHIS IBDV, one mL of 4 mg/ml orally at challenge, 24 and 48 hours PI, necropsy three days post-challenge
Experimental: The procedure according to Example 12 was carried out with the following modifications: the drugs SW066, DB197, DB528, DB203 and DAP092 were tested in three week old Leghorns for protection against 100 EID of APHIS strain IBDV. The drugs were suspended in histidine-saline and used at a concentration of 4 mg/ml. One mL of drug was administered orally on the day of challenge (30 minutes prior to challenge), 24 hours PI and 48 hours PI. Birds were euthanised by CO2 inhalation and necropsied at three days post-challenge. Each drug and placebo cohort consisted of eight leghorns. Birds were weighed and sorted on the day of challenge to co-mingle birds of different weights and monitor drug dose per body weight. Birds were raised in isolation units. Each unit held 12 birds, two birds for each of the six cohorts (i.e., placebo, SW066, DB197, DB528, DB203 and DAP092). In addition, 12 uninfected birds were housed in a separate isolation unit.
The viral load of the bursa was determined by antigen capture ELISA, as described in Example 2, while absolute lymphocyte cell counts were determined by hemocytometer.

APHIS isolate of IBDV = assay: In vivo drug treatment of IBDV-challenged SPF leghorn chickens (Example 10); details: for appearance of bursas upon necropsy: 20 mg/kg nares/cloaca; for appearance of bursas upon necropsy / Lymphocyte Population Per Gram of Bursal tissue, Percentage Uninfected Control: three days; for Lymphocyte Population Per Gram of Bursal tissue, Percentage Uninfected Control: 100 EID APHIS IBDV at three weeks of age, 20 mg/kg, half in the nares, half in the cloaca; for lymphocyte populations: three days after infection
Experimental: SPF leghorn chickens were challenged at three weeks of age with an 100 EID APHIS isolate of IBDV. Approximately 12 birds were contained in an isolator unit with four units being employed. In each isolator unit, two birds received either drug or a placebo. One unit contained uninfected controls. The birds are treated with the drugs SW066, DAP092, DB453, DB197, and DB203 for three days. Half of the drug dosage was administered in the nares, while the second half was administered in the cloaca, at a dosage of 20 mg/kg. At necropsy, the birds were weighed, their bursa removed, weighed, and ground with a tissue homogenizer. The ground bursa material was evaluated for lymphocyte counts and viral load.

APHIS IBDV strain [2] = assay: Evaluation of drug effect to prevent or inhibit IBD, SW066 intravenous and prodrug oral (Example 12); type: in vivo, chicks
Experimental: The procedure according to Example 11 was carried out, with a variation in which chicks were placed in six groups of ten birds each, as follows: (1) no virus control (oral placebo), (2) no virus control (SW066 intravenous), (3) no virus control (prodrug of SW066 oral), (4) APHIS IBDV strain 130 EID (oral placebo), (5) APHIS IBDV strain 130 EID (SW066 intravenous), and (6) APHIS IBDV strain 130 EID (prodrug of SW066 oral). The birds were challenged at three weeks of age with 100 μl of APHIS strain divided between the eye and nares. Drug was administered intravenously or orally. The prodrug version of SW066 was used via the oral route to enhance absorption. Daily drug treatment began the same day and thirty minutes prior to challenge. After seven days, survivors were sacrificed and necropsied.

IBDV [3] = type: cell-based, infectious bursal disease virus
IBDV [4] = assay: Trypsin competition experiment; type: cell-based, infectious bursal disease virus; details: trypsin 1 mg/ml added to the cells in culture
Experimental: It is known that the addition of trypsin can enhance the attachment and penetration of respiratory syncytial virus and rotavirus. A trypsin competition experiment was performed in order to confirm that the activity of the inventive compounds of the present invention is not the result of protease-mediated virus attachment or penetration, as follows: trypsin (1 mg/ml) was added to the cells in culture described above in Example 6.

APHIS IBDV strain [5] = assay: Evaluation of drug effect to prevent or inhibit IBD, oral SW066 (Example 11); type: in vivo, chicks
Experimental: Chicks were placed in four groups of nine birds each. The four groups were: (1) no virus control (placebo), (2) no virus control (treated with SW066), (3) APHIS IBDV strain at 130 EID (placebo), and (4) APHIS IBDV strain at 130 EID (treated with SW066). The birds were challenged at two weeks of age with 10 μL of the APHIS strain divided between the eye and nares. The drug was administered orally, one mL at a concentration of five mg/mL. […] Daily drug treatment began the same day and 30 minutes prior to challenge. After seven days, survivors were sacrificed and necropsied.
The virus is believed to cause necrosis in the bursa and to reach a plateau of virus level at three days post-challenge. As the inflammation begins to subside, the organ decreases in size and is severely atrophied at seven to ten days post-challenge. The bursa weight is accordingly a measure of bursal disease severity and was used in this experiment to detect differences between treatment groups.

IBDV Variant A = type: cell-based, infectious bursal disease virus; details: 0.1 mM drug
IBDV [6] = assay: Virucidal effect: viability of virions produced in the presence of drug, second set of CEF cultures; type: cell-based, infectious bursal disease virus
Experimental: IBDV-infected cells were treated with varying concentrations (0.01 μM, 0.1 μM, 1 μM, 10 μM and 100 μM) of SW066 for 24 hours. After 24 hours, SW066 was washed away from the cell. After 72 hours of total incubation time (i.e., after the life cycle of IBDV is predicted to be complete), the resulting virions were harvested, as described above.
In order to determine if the virions produced in the presence of drug are viable, varying dilutions of these viral preparations were used to inoculate a second set of CEF cultures. Concentrations of the viral dilutions were as follows: 1.00E-10, 1.00E-09, 1.00E-08, 1.00E-07, 1.00E-06 and 1.00E-05. After 72 hours of incubation, cells were treated by a freeze-thaw method to harvest viral particles, and were assayed by ELISA as described in Example 2.

## N=C(N)c1ccc2nc(Cc3nc4ccc(C(=N)N)cc4[nH]3)[nH]c2c1 [BABIM]
[1]
  inhibition of IBDV replication (virion formation): most significant decrease of virion formation
cells
  cell toxicity (MTT assay): No toxicity

## Cc1cnc(-c2ccc(C3=NCCN3)cc2)nc1-c1ccc(C2=NCCN2)cc1 [DB197]
APHIS strain IBDV
  protection against IBDV (rank order): the most protection
APHIS strain IBDV; t-test, p-value=0.01
  lymph per bursa cell number versus uninfected controls: significantly different from uninfected controls
APHIS strain IBDV; three days post-challenge
  lymph per bursa cell number (rank among groups): the highest
APHIS isolate of IBDV
  appearance of bursas upon necropsy: appeared identical to those from the uninfected control group
  Lymphocyte Population Per Gram of Bursal tissue, Percentage Uninfected Control: 60.5 Percentage Uninfected Control
  lymphocyte populations: maintenance of relatively normal lymphocyte populations

## COc1cc(C2=NCCN2)ccc1-c1ccnc(-c2ccc(C3=NCCN3)cc2)n1 [DB203]
APHIS strain IBDV
  protection against IBDV (rank order): DB197>DB203>DB528>DAP092>SW066
APHIS isolate of IBDV
  appearance of bursas upon necropsy: appeared identical to those from the uninfected control group
  Lymphocyte Population Per Gram of Bursal tissue, Percentage Uninfected Control: 51.3 Percentage Uninfected Control
  lymphocyte populations: maintenance of relatively normal lymphocyte populations

## N=C(N)c1ccc2oc3ccc(C(=N)N)cc3c2c1 [SW066]
APHIS IBDV strain [2]; SW066 intravenous or prodrug oral, seven days
  bursa weight of survivors, difference between groups: No statistical significant difference
APHIS IBDV strain [2]; SW066 intravenous, APHIS IBDV 130 EID, ten birds, placebo 40%
  mortality: 10%
[1]
  inhibition of IBDV replication (virion formation): most significant decrease of virion formation
IBDV [3]; added after 12 hours
  virus production when drug is added after infection: very little potential effect on virus production
IBDV [3]; added prior to the 12 hour incubation time point
  virus replication when drug is added after infection: potentially substantial inhibition of virus replication
IBDV [3]; drug remains in the culture past the one hour time point
  virus production when drug is removed by washing: significant decrease in virus production
IBDV [3]; removed prior to one hour
  virion formation when drug is removed by washing: little or no affect on virion formation
APHIS strain IBDV
  protection against IBDV (rank order): DB197>DB203>DB528>DAP092>SW066
APHIS isolate of IBDV
  Lymphocyte Population Per Gram of Bursal tissue, Percentage Uninfected Control: 4.3 Percentage Uninfected Control
IBDV [4]
  effect of the presence of trypsin on the drug's activity: not found to inhibit the drug's activity
APHIS IBDV strain [5]; 130 EID APHIS IBDV, oral one mL of five mg/mL daily, seven days, p=0.05
  bursa weights versus placebo group: higher in the drug treatment group compared to the placebo group
APHIS IBDV strain [5]; 130 EID APHIS IBDV, oral, seven days
  post-challenge titers, infected drug versus placebo group: not significantly different
APHIS IBDV strain [5]; groups of nine birds, same number died with placebo
  deaths in the challenge group: Two birds died
APHIS IBDV strain [5]; infected birds, placebo group all scored four, remaining drug birds scored four
  bursa histology score: two birds in the drug group (n=7) were scored as three
APHIS IBDV strain [5]; oral, 130 EID
  protection from IBDV induced B-cell depletion: some protection
IBDV Variant A
  effectiveness in decreasing virion formation (comparison of the three compounds): most effective
IBDV Variant A; even at the high concentrations of virus
  effect in reducing IBDV production: significant effect in reducing IBDV production
IBDV Variant A; highest concentration of virus
  cytopathic effect (CPE), inverted microscope: Very little CPE
IBDV [6]; 10 μM of drug
  long term drug effect in the second set of cultures: long term drug effect was also observed for some virus dilutions
IBDV [6]; drug for 24 hours then washed away, virions harvested at 72 hours
  duration of the virucidal effect: not transient
IBDV [6]; first set of cultures treated at 100 μM, with the exception of the 10^-5 dilution of virus
  virus propagation in the second set of cultures: did not propagate virus
IBDV [6]; with the 10^-10 dilution of virus
  lowest concentration of drug that demonstrated anti-viral activity: 1 µM
cells
  cell toxicity (MTT assay): some toxicity may be associated

Source: patent US6774144B1, “Methods and formulations for the treatment of infectious bursal disease in avian subjects” (The University of North Carolina at Chapel Hill, priority 1999, dated 2004)
